Results on three molecules are retold here after patent publication US8697898B2, “Medical application of lipid derivatives of dopamine and the methods of their production” (Instytut Medycyny Doswiadczalnej i Klinicznej im. M. …, priority 2011, dated 2014).

Data set [1] deals with rat model of Parkinson's disease. Here is the method: Symptoms of the Parkinson's disease, particularly muscle rigidity during flexion and extension movements in the ankle joint, were induced with reserpine (2.5 mg/kg, i.p.) and a-methyl-tyrosine (α-MT, 250 mg/kg, i.p.) administered at a 16-h interval. Afterwards, 3′-O-methyl-N-oleoyl-dopamine (O-Me-OLDA) was administered at a dose of 10 mg/kg and the muscular tone was measured using electromyographic (EMG) techniques. The control groups consisted of a) only vehiculum-treated animals in which no symptoms of Parkinson's disease were induced (control), b) animals who received only 3′-O-methyl-N-oleoyl-dopamine (O-Me-OLDA) and c) animals in which symptoms of Parkinson's disease were induced (reserpine+α-MT), but no other treatment was introduced.
This method is a pharmacological tool for modeling the typical, dopamine-deficiency-related brain symptoms of Parkinson's disease in rats.

Another data set has as its system awake Wistar rats. In words: Respiration in normoxia and hypoxia in the awake rat (plethysmographic chamber). Format: in vivo. The note with it: for minute lung ventilation after administration of haloperidol and N-oleoyl-dopamine: haloperidol 0.9 mg/kg i.p. prior to N-oleoyl-dopamine 40 mg/kg i.p. Here is the method: The study was performed in awake Wistar rats in a computerized plethysmographic chamber for small rodents. Respiratory frequency, tidal volume and pulmonary ventilation were measured. The experimental protocol included recordings in normoxia (breathing with atmospheric air), two levels of hypoxic stimulus (8% and 12% O2 in N2), intraperitoneal (i.p.) administration of N-oleoyl-dopamine (in a dose of 40 mg/kg) and repeated recordings for both normoxic and hypoxic states. Additionally, further experiments with the dopamine receptor antagonist haloperidol (in a dose of 0.9 mg/kg, i.p.) were performed. In those experiments, haloperidol was administered prior to N-oleoyl-dopamine and the recordings according the above-mentioned protocol were repeated.
The study was performed in awake Wistar rats in a computerized plethysmographic chamber for small rodents. Respiratory frequency, tidal volume and pulmonary ventilation were measured. The experimental protocol included recordings for normoxia (breathing with atmospheric air), for two levels of hypoxic stimulus (8% and 12% O2 in N2), intraperitoneal (i.p.) administration of 3′-O-methyl-N-oleoyl-dopamine (in a dose of 40 mg/kg), and then repeated recordings for both normoxic and hypoxic states.

In data set [2] the test system is anesthetized, paralyzed and artificially ventilated Wistar rats. In words: Respiratory response to hypoxia in the anesthetized rat (integrated phrenic nerve activity). Format: in vivo. On the procedure:
The study was performed in anesthetized, paralyzed and artificially ventilated Wistar rats. During the experiments, the integrated activity of the phrenic nerve was recorded. This activity reflects the frequency and tidal volume; their product represents the index of minute lung ventilation. The experimental protocol consisted of control recordings for two levels of the hypoxic stimulus: 14% and 11% O2 in N2. Afterwards, N-oleoyl-dopamine in a dose of 20 mg/kg was given and the recordings were repeated. Additionally, experiments with two dopamine receptor antagonists were performed: first, with the penetrating through the blood-brain barrier D2 dopamine receptor antagonist haloperidol and second, with the non-penetrating through the blood-brain-barrier domperidone. In these studies, after the control recordings, haloperidol (in a dose of 3 mg/kg) or domperidone (in a dose of 0.3 mg/kg) were administered and the recordings repeated. Then, N-oleoyl-dopamine was given and the recordings were repeated.

In data set [3] the test system is membrane system of the rat brain. In words: Binding to the rat brain membrane system after intraperitoneal administration (TLC of brain lipids). Format: in vivo, Wistar rats. Conditions: 20 mg/kg intraperitoneal. On the procedure:
N-oleoyl-dopamine was administered to Wistar rats at a dose of 20 mg/kg. After 1, 2, 3 or 24 hours the rat was sacrificed and the brain was resected. From the tissue, the whole lipid fraction, containing all lipids of the brain and the membrane fraction of the rat brain were obtained. Total lipids were obtained by homogenization of the brain in a mixture of chloroform and methanol 2:1 followed by an extraction of the water-soluble fractions and evaporation of the solvent. The membrane phase was obtained according to Xu et al. (Xu, 1998) and extracted with chloroform to obtain membrane lipids. All obtained samples were analyzed by the thin layer chromatography TLC on silica gel plates 60 using a mixture of chloroform and methanol 95:5 as the mobile phase and N-oleoyl-dopamine as the standard. The Retention Factor (Rf) for the N-oleoyl-dopamine standard was equal to 0.24-0.26. At the same level (the same Rf=0.24-0.29) there were bands corresponding to N-oleoyl-dopamine in the biological samples, that is after systemic N-oleoyl-dopamine injection, but not in the control samples obtained with no N-oleoyl-dopamine injection.

The conditions of data set [4]: after injection into the carotid artery; cited from earlier work.
In a further data set the test system is rat. Conditions: cited from earlier work.
Data set [5] addresses T1, catechol-O-methyltransferase (Homo sapiens, UniProt P21964).
T1 sequence (P21964 1-271): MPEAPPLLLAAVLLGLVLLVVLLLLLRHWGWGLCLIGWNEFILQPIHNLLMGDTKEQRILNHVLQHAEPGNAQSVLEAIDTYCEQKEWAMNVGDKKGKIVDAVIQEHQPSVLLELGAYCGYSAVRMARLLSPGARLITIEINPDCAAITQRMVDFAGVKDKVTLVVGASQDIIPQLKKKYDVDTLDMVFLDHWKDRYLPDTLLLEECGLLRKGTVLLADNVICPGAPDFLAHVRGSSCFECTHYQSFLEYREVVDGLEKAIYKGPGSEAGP
Briefly: O-methylation by catechol-O-methyltransferase in vitro. It is filed as in vitro ADME. The note with it: PBS pH=8, 10 mM magnesium ions, S-adenosyl-L-methionine, one hour at 37° C. On the procedure: N-oleoyl-dopamine underwent the reaction of methylation with the catechol-O-methyltransferase in PBS buffer pH=8 with 10 mM magnesium ions as the co-factor and S-adenosyl-L-methionine as the donor of methyl groups. The reaction was conducted for one hour at 37° C. After the termination of the reaction, the reaction mixture was extracted with chloroform to obtain an organic and an aqueous phase. Both phases were analyzed using UV/VIS spectrophotometry and high performance liquid chromatography with mass detection (HPLC/MS). It was shown that the organic phase contained both N-oleoyl-dopamine and 3′-O-methyl-N-oleoyl-dopamine (the substrate and the product of the reaction, respectively), and the aqueous phase S-adenosyl-L-methionine and its demethylated derivative, S-adenosyl-L-homocystein (the substrate and the product of the reaction, respectively). The obtained results were additionally confirmed with the mass spectrometry (MS).

[6] abbreviates: N-oleoyl-dopamine given after domperidone 0.3 mg/kg.
Setting [7] is: N-oleoyl-dopamine given after haloperidol 3 mg/kg.

Take `CCCCCCCC/C=C\CCCCCCCC(=O)NCCc1ccc(O)c(OC)c1` [3′-O-methyl-N-oleoyl-dopamine]: the “level of muscle tone elevated by reserpine (force needed for flexion and extension of the ankle joint)” value in data set [1] (10 mg/kg, FIG. 1) is given as “decreases nearly down to the control level”. Besides, in data set [1] (reserpine 2.5 mg/kg i.p. + α-MT 250 mg/kg i.p., compound 10 mg/kg), the “muscle rigidity in rats showing symptoms of Parkinson's disease” value is “abolished muscle rigidity”. For the same molecule, in the data set on awake Wistar rats (8% hypoxia, 40 mg/kg i.p.), the “peak respiratory response after administration” value worked out at 1939±255 ml/min/kg body weight. Besides, the “resting ventilation during breathing with atmospheric oxygen after administration” value in the data set on awake Wistar rats (normoxia, 40 mg/kg i.p.) worked out at 779.7±148.7 ml/min/kg body weight.

In the case of `CCCCCCCC/C=C\CCCCCCCC(=O)NCCc1ccc(O)c(O)c1` [N-oleoyl-dopamine], the “respiration in the inhibitory phase” value in data set [2] (setting [6]) is “still diminished the respiration”. Besides, the “response to hypoxia in the stimulatory phase” value in data set [2] (setting [6]) is reported as “did not change the response to hypoxia”. In addition, the “respiratory response in the first stimulatory phase” value in data set [2] (setting [7]) is “did not restore the respiratory response”. For the same molecule, in data set [2] (setting [7]), the “respiratory response in the second inhibitory phase” value is reported as “still diminished it”. The “penetration into the brain tissue” value in data set [3] was “penetrates”. Besides, in data set [4], the “ability to penetrate into the brain” value is recorded as “ability to penetrate into the brain”. Besides, the “peak respiratory response after administration” value in the data set with awake Wistar rats (8% hypoxia, 40 mg/kg i.p.) was 1338.3±49.5 ml/min/kg body weight; in the data set with awake Wistar rats (12% hypoxia, 40 mg/kg i.p.) it was 856.6±73.7 ml/min/kg body weight. In addition, the results for the “minute lung ventilation after administration of haloperidol and N-oleoyl-dopamine” value in the data set with awake Wistar rats (8% hypoxia) and in the data set with awake Wistar rats (12% hypoxia) were 1947.3±66.5 ml/min/kg body weight and 1484.0±92.3 ml/min/kg body weight, respectively. In addition, in the data set with awake Wistar rats (haloperidol 0.9 mg/kg i.p. prior to N-oleoyl-dopamine), the “peak respiratory response after N-oleoyl-dopamine under blockade of the dopaminergic system” value is “only a slight reduction”. For the same molecule, in the data set on rat, the locomotive activity result is recorded as “increases the locomotive activity”. Further, the “O-methylation by catechol-O-methyltransferase” value in data set [5] is recorded as “undergoes the O-methylation”.

`O=C(CCCN1CCC(O)(c2ccc(Cl)cc2)CC1)c1ccc(F)cc1` [haloperidol, reference compound]: in data set [2] (drug alone), the “respiration in the second inhibitory phase of the hypoxic response” value is listed as “diminished the respiration”.
